Columns and labels:
[1] = LNP size and polydispersity index (PDI) by dynamic light scattering; type: physicochemical; conditions: LNP with cirRNA (SEQ ID NO: 1); for Size: in nm (unit assumed)
Procedure, shortened: (§1)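 LNPs of ionizable lipid/DSPC/cholesterol/DMG-PEG 2000 (50:10:38.5:1.5) made by microfluidic mixing of luciferase circRNA or mRNA in pH 4.5 acetate with lipids in ethanol (3:1, 12 ml/min), ionizable lipid:nucleotide 15 or 6, then dialyzed against PBS. Size, PDI (DLS) and zeta potential on Zetasizer; encapsulation by Ribogreen ± Triton X-100.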

[2] = LNP zeta potential (Zetasizer); type: physicochemical; conditions: LNP with cirRNA (SEQ ID NO: 1)
Procedure, shortened: as §1

[3] = RNA encapsulation efficacy by Quant-IT Ribogreen kit; type: physicochemical; conditions: LNP with cirRNA (SEQ ID NO: 1)
Procedure, shortened: as §1

[4] = tested on: Hep G2 cells; experiment: In vitro expression of firefly-luciferase, Hep G2; type: cell-based; conditions: cirRNA (SEQ ID NO: 1) LNPs; firefly-luciferase luminescence; Hep G2 cells
Procedure, shortened: (§2)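 Cells were transfected with firefly-luciferase-encoding RNA-LNPs at 100 ng/mL. After 72 hours they were washed and lysed, and luciferase activity in the lysates was read by luminometry.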

[5] = tested on: RAW 264.7 cells; experiment: In vitro expression of firefly-luciferase, RAW 264.7; type: cell-based; conditions: cirRNA (SEQ ID NO: 1) LNPs; firefly-luciferase luminescence; RAW 264.7 cells
Procedure, shortened: as §2

[6] = tested on: Hep G2 cells; experiment: In vitro toxicity (CellTiter-Glo cell viability), Hep G2; type: cell-based; conditions: cirRNA (SEQ ID NO: 1) LNPs; Hep G2 cells;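 further: percent of untreated cells luminescence signal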
Procedure, shortened: (§3)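 Cells were transfected with RNA-LNPs at 1 μg/mL and, 72 hours later, viability was measured by CellTiter-Glo luminescence. Values are cell viability calculated from the luminescence signal.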

[7] = tested on: RAW 264.7 cells; experiment: In vitro toxicity (CellTiter-Glo cell viability), RAW 264.7; type: cell-based; conditions: cirRNA (SEQ ID NO: 1) LNPs; RAW 264.7 cells;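 further: percent of untreated cells luminescence signal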
Procedure, shortened: as §3

[8] = tested on: BALB/C mice; experiment: In vivo expression, whole-body luminescence (IVIS); conditions: cirRNA (SEQ ID NO: 1) LNPs, BALB/C mice
Procedure: 6-8 week old, female BALB/C mice were injected with 0.05 mg*kg-1 of RNA-LNPs encoding for firefly-luciferase by intravenous injection. At 6 hours post injection, animals were intraperitoneally injected with 15 mg/ml of Luciferin substrate and whole-body luminescence was determined by a bioluminescent in vivo imaging system (IVIS).

Row | Compound | PDI [1] | Size [1] | Zeta (mV) [2] | Encapsulation Efficiency % [3] | In vitro Expression HepG2 [4] | In vitro Expression RAW [5] | In vitro Viability HepG2 [6] | In vitro Viability RAW [7] | In vivo Expression (Whole Body) [8]
1 | CCCCCCCC/C=C\CCCCCCCCN(CCCCCCCCOC(=O)C(CCCCCC)CCCCCCCC)CCOC(=O)NCCN1CCN(C)CC1 (stereo not drawn) [Lipid 214] | 0.304 | 76.43 | 5.906 mV | 96% | 3.88E+06 | 1.20E+05 | 83% | 87% | 1.18E+06
2 | CCCCCCCCCCCOC(=O)CCCCCN(CCCCCC(=O)OCCCCCCCCCCC)CCOC(=O)NCCN(C)C [Lipid 154, undecyl 2-methyl-6-oxo-10-(6-oxo-6-(undecyloxy)hexyl)-7-oxa-2,5,10-triazahexadecan-16-oate] | 0.1144 | 75.25 | 25.23 mV | 90% | 2.59E+05 | 2.36E+03 | 106% | 101% | 1.01E+05
3 | CCCCC/C=C\C/C=C\CCCCCCCCN(CCCCCCCC/C=C\C/C=C\CCCCC)CCOC(=O)NCCN1CCOCC1 [Lipid 36, 2-(di((9Z,12Z)-octadeca-9,12-dien-1-yl)amino)ethyl (2-morpholinoethyl)carbamate] | 0.138 | 125.4 | −3.556 mV | 96% | 9.18E+04 | 2.03E+04 | 82% | 95% | 1.21E+05
4 | CCCCCCCC/C=C\CCCCCCCCN(CCCCCCCCOC(=O)C(CCCCCC)CCCCCCCC)CCOC(=O)NCCCN(CC)CC (stereo not drawn) [Lipid 213] | 0.2952 | 114.2 | 13.22 mV | 94% | 6.40E+06 | 2.06E+04 | 74% | 90% | 2.11E+06
5 | CCCCCCCOC(=O)CCCCCCCCCN(CCCCCCCCCC(=O)OCCCCCCC)CCOC(=O)NCCN1CCCC1 [Lipid 119, diheptyl 10,10′-((2-(((2-(pyrrolidin-1-yl)ethyl)carbamoyl)oxy)ethyl)azanediyl)bis(decanoate)] | 0.064 | 142.1 | 9.53 mV | 96% | 1.46E+03 | 1.47E+04 | 17% | 8% | 9.30E+05
6 | CCCCCCCCCC(=O)OCCCCCCCN(CCCCCCCCOC(=O)C(CCCCCC)CCCCCCCC)CCOC(=O)NCCN1CCN(C)CC1 (stereo not drawn) [Lipid 200] | 0.2967 | 82.06 | 7.27 mV | 95% | 4.46E+05 | 4.45E+04 | 103% | 0% | 6.79E+05
7 | CCCCC/C=C\C/C=C\CCCCCCCCN(CCCCCCCC/C=C\C/C=C\CCCCC)CCOC(=O)NCc1ncc[nH]1 [Lipid 39, 2-(di((9Z,12Z)-octadeca-9,12-dien-1-yl)amino)ethyl ((1H-imidazol-2-yl)methyl)carbamate] | 0.07 | 169.5 | −3.335 mV | 91% | 8.11E+02 | 2.58E+03 | 90% | 96% | 1.15E+04
8 | CCCCCCCCCC(=O)OCCCCCCCCN(CCCCCCCCOC(=O)CCCCCCCCC)CCOC(=O)NCCN1CCN(C)CC1 [Lipid 205] | 0.1521 | 61.16 | 18.81 mV | 94% | 5.81E+05 | 7.09E+03 | 94% | 95% | 6.61E+05
9 | CCCCC/C=C\CCOC(=O)CCCCCN(CCCCCCCCOC(=O)C(CCCCCC)CCCCCCCC)CCOC(=O)NCCN1CCOCC1 (stereo not drawn) [Lipid 188] | 0.07877 | 73.74 | −9.419 mV | 88% | 1.12E+04 | 2.82E+03 | 96% | 87% | 2.17E+07
10 | CCCCCCCCCC(=O)OCCCCCCCN(CCCCCCCCOC(=O)C(CCCCCC)CCCCCCCC)CCCOC(=O)NCCN1CCN(C)CC1 (stereo not drawn) [Lipid 362] | 0.3944 | 88.25 | 11.87 mV | 89% | 3.82E+04 | 1.99E+03 | 106% | 0% | 1.68E+06
11 | CCCCC/C=C\C/C=C\CCCCCCCCN(CCCCCC(=O)OCC(CCCCCCCC)CCCCCCCCCC)CCOC(=O)NCCN1CCN(C)CC1 (stereo not drawn) [Lipid 78, 2-octyldodecyl 6-((2-(((2-(4-methylpiperazin-1-yl)ethyl)carbamoyl)oxy)ethyl)((9Z,12Z)-octadeca-9,12-dien-1-yl)amino)hexanoate] | 0.0918 | 110 | 9.83 mV | 100% | 1.31E+05 | 7.80E+03 | 113% | 106% | 4.92E+05

Source: patent US12691070B2, “Cationic lipids and preparation method thereof” (RiboX Therapeutics HK Limited, priority 2023, dated 2026)
